# Results from PubChem BioAssay AID212 (DTP/NCI, 2004).
# Where “and” joins values, the source holds several entries; their conditions need not be identical. Equal entries are not always repeated. Inconclusive results are not listed.
# Tested on: BDF1 mice, colon carcinoma 38 sc, T/C %
# Assay: NCI In Vivo Anticancer Drug Screen. Data for tumor model Colon Carcinoma 38 (subcutaneous) in B6D2F1 (BDF1) mice
# Outline: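 T/C readout: treated group (T) measurement over vehicle control group (C) measurement. Endpoint is survival or tumor size in mice bearing a transplanted tumor.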
# [1] = endpoint: median tumor weight (est.), dose: 6.25 mg/kg/injection, schedule: Q07DX002 (ip), vehicle: saline, higher = larger tumour
# [2] = endpoint: median tumor weight (est.), dose: 25.0 mg/kg/injection, schedule: Q07DX002 (ip), vehicle: saline, higher = larger tumour
# [3] = endpoint: median tumor weight (est.), dose: 50.0 mg/kg/injection, schedule: Q07DX002 (ip), vehicle: saline, higher = larger tumour
# [4] = endpoint: median tumor weight (est.), dose: 100.0 mg/kg/injection, schedule: Q07DX002 (ip), vehicle: saline with Tween-80, higher = larger tumour
# [5] = endpoint: median tumor weight (est.), dose: 200.0 mg/kg/injection, schedule: Q07DX002 (ip), vehicle: saline with Tween-80, higher = larger tumour
smiles,measurement,setting,value
CCCNC1=C(C)C(=O)C2=C(C1=O)[C@H](COC(N)=O)[C@]1(OC)[C@@H]3N[C@@H]3CN21,T/C,"endpoint: median tumor weight (est.), dose: 0.78 mg/kg/injection, schedule: Q07DX002 (ip), vehicle: saline, higher = larger tumour",72 % of control
same,T/C,"endpoint: median tumor weight (est.), dose: 1.56 mg/kg/injection, schedule: Q07DX002 (ip), vehicle: saline, higher = larger tumour",85 % of control
same,T/C,"endpoint: median tumor weight (est.), dose: 3.12 mg/kg/injection, schedule: Q07DX002 (ip), vehicle: saline, higher = larger tumour",84 % of control
same,T/C,"endpoint: median tumor weight (est.), dose: 6.0 mg/kg/injection, schedule: Q07DX002 (ip), vehicle: suspension in saline, higher = larger tumour",84 % of control
same,T/C,[1],25 % of control
same,T/C,"endpoint: median tumor weight (est.), dose: 12.0 mg/kg/injection, schedule: Q07DX002 (ip), vehicle: suspension in saline, higher = larger tumour",34 % of control
same,T/C,"endpoint: median tumor weight (est.), dose: 12.5 mg/kg/injection, schedule: Q07DX002 (ip), vehicle: saline, higher = larger tumour",6 % of control
C=C(C)[C@@H]1CCc2c(O)c(O)c(=O)cc(C)c2C1,T/C,"endpoint: median tumor weight (est.), dose: 25.0 mg/kg/injection, schedule: Q07DX002 (ip), vehicle: Klucel (hydroxypropylcellulose) (HPC), higher = larger tumour",102 % of control
same,T/C,"endpoint: median tumor weight (est.), dose: 50.0 mg/kg/injection, schedule: Q07DX002 (ip), vehicle: Klucel (hydroxypropylcellulose) (HPC), higher = larger tumour",64 % of control
same,T/C,"endpoint: median tumor weight (est.), dose: 100.0 mg/kg/injection, schedule: Q07DX002 (ip), vehicle: Klucel (hydroxypropylcellulose) (HPC), higher = larger tumour",85 % of control
same,T/C,"endpoint: median tumor weight (est.), dose: 200.0 mg/kg/injection, schedule: Q07DX002 (ip), vehicle: Klucel (hydroxypropylcellulose) (HPC), higher = larger tumour",96 % of control
same,T/C,"endpoint: median tumor weight (est.), dose: 400.0 mg/kg/injection, schedule: Q07DX002 (ip), vehicle: Klucel (hydroxypropylcellulose) (HPC), higher = larger tumour",102 % of control
CCCCCC#CC1OC12CCCCC2 (stereo not given),T/C,[1],17 % of control
same,T/C,"endpoint: median tumor weight (est.), dose: 12.5 mg/kg/injection, schedule: Q07DX002 (ip), vehicle: saline with Tween-80, higher = larger tumour",88 % of control
same,T/C,"endpoint: median tumor weight (est.), dose: 25.0 mg/kg/injection, schedule: Q07DX002 (ip), vehicle: saline with Tween-80, higher = larger tumour",122 % of control
same,T/C,[2],64 % of control and 66 % of control
same,T/C,"endpoint: median tumor weight (est.), dose: 50.0 mg/kg/injection, schedule: Q07DX002 (ip), vehicle: saline with Tween-80, higher = larger tumour",91 % of control
same,T/C,[3],24 % of control
same,T/C,[4],169 % of control
same,T/C,[5],103 % of control
same,T/C,"endpoint: median tumor weight (est.), dose: 200.0 mg/kg/injection, schedule: Q07DX002 (ip), vehicle: saline, higher = larger tumour",38 % of control and 41 % of control
N[C@H](C(=O)O)[C@@H]1CC(Cl)=NO1,T/C,"endpoint: median survival time, dose: 25.9 mg/kg/injection, schedule: Q04DX002 (ip), vehicle: suspension in saline, higher = longer survival",113 % of control
same,T/C,"endpoint: median survival time, dose: 43.2 mg/kg/injection, schedule: Q04DX002 (ip), vehicle: suspension in saline, higher = longer survival",122 % of control
same,T/C,"endpoint: median survival time, dose: 72.0 mg/kg/injection, schedule: Q04DX002 (ip), vehicle: suspension in saline, higher = longer survival",114 % of control
same,T/C,"endpoint: median survival time, dose: 200.0 mg/kg/injection, schedule: Q04DX002 (ip), vehicle: suspension in saline, higher = longer survival",119 % of control
same,T/C,"endpoint: median tumor weight (est.), dose: 1.0 mg/kg/injection, schedule: Q07DX003 (ip), vehicle: saline, higher = larger tumour",114 % of control
same,T/C,"endpoint: median tumor weight (est.), dose: 2.0 mg/kg/injection, schedule: Q07DX003 (ip), vehicle: saline, higher = larger tumour",71 % of control and 79 % of control
same,T/C,"endpoint: median tumor weight (est.), dose: 4.0 mg/kg/injection, schedule: Q07DX003 (ip), vehicle: saline, higher = larger tumour",86 % of control
same,T/C,"endpoint: median tumor weight (est.), dose: 8.0 mg/kg/injection, schedule: Q07DX003 (ip), vehicle: saline, higher = larger tumour",156 % of control
same,T/C,"endpoint: median tumor weight (est.), dose: 16.0 mg/kg/injection, schedule: Q07DX003 (ip), vehicle: saline, higher = larger tumour",69 % of control
same,T/C,"endpoint: median tumor weight (est.), dose: 32.0 mg/kg/injection, schedule: Q07DX003 (ip), vehicle: saline, higher = larger tumour",69 % of control
same,T/C,"endpoint: median tumor weight (est.), dose: 64.0 mg/kg/injection, schedule: Q07DX003 (ip), vehicle: saline, higher = larger tumour",78 % of control
N=c1ccn2c(n1)OC1C(O)C(CO)OC12 (stereo not given),T/C,[2],84 % of control
same,T/C,[3],105 % of control
same,T/C,"endpoint: median tumor weight (est.), dose: 50.0 mg/kg/injection, schedule: Q07DX003 (ip), vehicle: suspension in saline, higher = larger tumour",94 % of control
same,T/C,"endpoint: median tumor weight (est.), dose: 100.0 mg/kg/injection, schedule: Q07DX003 (ip), vehicle: suspension in saline, higher = larger tumour",73 % of control
same,T/C,"endpoint: median tumor weight (est.), dose: 200.0 mg/kg/injection, schedule: Q07DX003 (ip), vehicle: suspension in saline, higher = larger tumour",66 % of control
same,T/C,"endpoint: median tumor weight (est.), dose: 400.0 mg/kg/injection, schedule: Q07DX003 (ip), vehicle: suspension in saline, higher = larger tumour",51 % of control
same,T/C,"endpoint: median tumor weight (est.), dose: 800.0 mg/kg/injection, schedule: Q07DX003 (ip), vehicle: suspension in saline, higher = larger tumour",20 % of control
same,T/C,"endpoint: median tumor weight (est.), dose: 1600.0 mg/kg/injection, schedule: Q07DX002 (ip), vehicle: saline, higher = larger tumour",31 % of control
same,T/C,"endpoint: median tumor weight (est.), dose: 1600.0 mg/kg/injection, schedule: Q07DX003 (ip), vehicle: suspension in saline, higher = larger tumour",19 % of control
CC(=O)NC(Cc1ccc(F)cc1)C(=O)O (stereo not given),T/C,[4],84 % of control
same,T/C,[5],83 % of control
same,T/C,"endpoint: median tumor weight (est.), dose: 400.0 mg/kg/injection, schedule: Q07DX002 (ip), vehicle: saline with Tween-80, higher = larger tumour",77 % of control
same,T/C,"endpoint: median tumor weight (est.), dose: 800.0 mg/kg/injection, schedule: Q07DX002 (ip), vehicle: saline with Tween-80, higher = larger tumour",77 % of control
